Results published in patent US7008905B2, “Method of combating undesired plant growth on cereals” (BASF Aktiengesellschaft, priority 2000, dated 2006).

Assays:
Assay type in all cases: in vivo
Alopecurus myosuroides = experiment: Pre-emergence test, weed control; details: 3 weeks after treatment, rating 0-100 (100=death), Table 1
In short: (§1)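 Herbicidal effect was scored visually on a 0–100 scale (100 = death, 0 = untreated-like) three weeks after treatment. Soil was horticultural loam sprayed just after sowing with aqueous-diluted acetone/0.4% TRITON X-155 formulations at 15–240 g a.i./ha (900 L/ha).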

Apera spica-venti = experiment: Pre-emergence test, weed control; details: 3 weeks after treatment, rating 0-100 (100=death), Table 1
In short: as §1

Galium aparine [1] = experiment: Pre-emergence test, weed control; details: 3 weeks after treatment, rating 0-100 (100=death), Table 1
In short: as §1

Lamium purpureum [2] = experiment: Pre-emergence test, weed control; details: 3 weeks after treatment, rating 0-100 (100=death), Table 1
In short: as §1

Lolium perenne = experiment: Pre-emergence test, weed control; details: 3 weeks after treatment, rating 0-100 (100=death), Table 1
In short: as §1

Matricaria inodora [3] = experiment: Pre-emergence test, weed control; details: 3 weeks after treatment, rating 0-100 (100=death), Table 1
In short: as §1

Poa annua = experiment: Pre-emergence test, weed control; details: 3 weeks after treatment, rating 0-100 (100=death), Table 1
In short: as §1

Polygonum convolvulus = experiment: Pre-emergence test, weed control; details: 3 weeks after treatment, rating 0-100 (100=death), Table 1
In short: as §1

Setaria viridis = experiment: Pre-emergence test, weed control; details: 3 weeks after treatment, rating 0-100 (100=death), Table 1
In short: as §1

Stellaria media [4] = experiment: Pre-emergence test, weed control; details: 3 weeks after treatment, rating 0-100 (100=death), Table 1
In short: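 Visual 0–100 rating, three weeks after treatment, where 0 equals untreated sown soil and 100 means plant death. Sown horticultural loam received an aqueous dilution of acetone solution (0.4% w/w alkylphenol/ethylene oxide condensate) at 15–240 g/ha, 900 l/ha spray volume.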

Veronica persica = experiment: Pre-emergence test, weed control; details: 3 weeks after treatment, rating 0-100 (100=death), Table 1
In short: as §1

HORVW = experiment: Pre-emergence test, selectivity; details: 3 weeks after treatment, rating 0-100 (100=death), Table 2
In short: as §1

[5] = test system: Hordeum vulgare variety “Mammut”; experiment: Pre-emergence test, selectivity; details: 3 weeks after treatment, rating 0-100 (100=death), Table 2
In short: as §1

[6] = test system: Triticum aestivum variety “Kanzler”; experiment: Pre-emergence test, selectivity; details: 3 weeks after treatment, rating 0-100 (100=death), Table 2
In short: as §1

[7] = test system: Triticum aestivum variety “Monopol”; experiment: Pre-emergence test, selectivity; details: 3 weeks after treatment, rating 0-100 (100=death), Table 2
In short: as §1

Galium aparine [8] = experiment: Post-emergence test, weed control; details: 2–4 weeks after treatment, rating 0-100 (100=death), Table 5
Procedure: (§2) These acetone solutions are diluted with water and the resulting formulations applied at dosage levels equivalent of about 0.030 to 0.240 kg per hectare of test compound per pot. After spraying the plants are placed an greenhouse benches and are cared for in the usual manner, commensurate with conventional greenhouse practices. From 2 to 4 weeks after treatment, the seedling plants are examined and rated according to the rating system provided above. A rating 0 indicates growth as untreated control, a rating 100 indicates death.

Lamium purpureum [9] = experiment: Post-emergence test, weed control; details: 2–4 weeks after treatment, rating 0-100 (100=death), Table 5
Procedure: as §2

Matricaria inodora [10] = experiment: Post-emergence test, weed control; details: 2–4 weeks after treatment, rating 0-100 (100=death), Table 5
Procedure: as §2

Stellaria media [11] = experiment: Post-emergence test, weed control; details: 2–4 weeks after treatment, rating 0-100 (100=death), Table 5
Procedure: as §2

wheat = experiment: Post-emergence test, tolerance in wheat; details: in vivo
Procedure: as §2

CCc1cc(Oc2cccc(C(F)(F)F)c2)nc(-c2ccc(C(F)(F)F)cc2)n1 [REF-3]
ALOMY weed control rating (Alopecurus myosuroides; 0.015 kg/ha): 55 | ALOMY weed control rating (Alopecurus myosuroides; 0.030 kg/ha): 98 | ALOMY weed control rating (Alopecurus myosuroides; 0.060 kg/ha): 98 | ALOMY weed control rating (Alopecurus myosuroides; 0.120 kg/ha): 100 | ALOMY weed control rating (Alopecurus myosuroides; 0.240 kg/ha): 100 | APESV weed control rating (Apera spica-venti; 0.015 kg/ha): 100 | APESV weed control rating (Apera spica-venti; 0.030 kg/ha): 100 | APESV weed control rating (Apera spica-venti; 0.060 kg/ha): 100 | APESV weed control rating (Apera spica-venti; 0.120 kg/ha): 100 | APESV weed control rating (Apera spica-venti; 0.240 kg/ha): 100 | GALAP weed control rating (Galium aparine [1]; 0.060 kg/ha): 50 | GALAP weed control rating (Galium aparine [1]; 0.120 kg/ha): 85 | GALAP weed control rating (Galium aparine [1]; 0.240 kg/ha): 97 | LAMPU weed control rating (Lamium purpureum [2]; 0.015 kg/ha): 100 | LAMPU weed control rating (Lamium purpureum [2]; 0.030 kg/ha): 100 | LAMPU weed control rating (Lamium purpureum [2]; 0.060 kg/ha): 100 | LAMPU weed control rating (Lamium purpureum [2]; 0.120 kg/ha): 100 | LAMPU weed control rating (Lamium purpureum [2]; 0.240 kg/ha): 100 | LOLPE weed control rating (Lolium perenne; 0.015 kg/ha): 90 | LOLPE weed control rating (Lolium perenne; 0.030 kg/ha): 98 | LOLPE weed control rating (Lolium perenne; 0.060 kg/ha): 99 | LOLPE weed control rating (Lolium perenne; 0.120 kg/ha): 99 | LOLPE weed control rating (Lolium perenne; 0.240 kg/ha): 100 | MATIN weed control rating (Matricaria inodora [3]; 0.015 kg/ha): 99 | MATIN weed control rating (Matricaria inodora [3]; 0.030 kg/ha): 99 | MATIN weed control rating (Matricaria inodora [3]; 0.060 kg/ha): 99 | MATIN weed control rating (Matricaria inodora [3]; 0.120 kg/ha): 100 | MATIN weed control rating (Matricaria inodora [3]; 0.240 kg/ha): 100 | POAAN weed control rating (Poa annua; 0.015 kg/ha): 100 | POAAN weed control rating (Poa annua; 0.030 kg/ha): 100 | POAAN weed control rating (Poa annua; 0.060 kg/ha): 100 | POAAN weed control rating (Poa annua; 0.120 kg/ha): 100 | POAAN weed control rating (Poa annua; 0.240 kg/ha): 100 | POLCO weed control rating (Polygonum convolvulus; 0.015 kg/ha): 25 | POLCO weed control rating (Polygonum convolvulus; 0.030 kg/ha): 70 | POLCO weed control rating (Polygonum convolvulus; 0.060 kg/ha): 80 | POLCO weed control rating (Polygonum convolvulus; 0.120 kg/ha): 100 | POLCO weed control rating (Polygonum convolvulus; 0.240 kg/ha): 100 | SETVI weed control rating (Setaria viridis; 0.015 kg/ha): 100 | SETVI weed control rating (Setaria viridis; 0.030 kg/ha): 100 | SETVI weed control rating (Setaria viridis; 0.060 kg/ha): 100 | SETVI weed control rating (Setaria viridis; 0.120 kg/ha): 100 | SETVI weed control rating (Setaria viridis; 0.240 kg/ha): 100 | STEME weed control rating (Stellaria media [4]; 0.015 kg/ha): 98 | STEME weed control rating (Stellaria media [4]; 0.030 kg/ha): 100 | STEME weed control rating (Stellaria media [4]; 0.060 kg/ha): 100 | STEME weed control rating (Stellaria media [4]; 0.120 kg/ha): 100 | STEME weed control rating (Stellaria media [4]; 0.240 kg/ha): 100 | VERPE weed control rating (Veronica persica; 0.015 kg/ha): 100 | VERPE weed control rating (Veronica persica; 0.030 kg/ha): 100 | VERPE weed control rating (Veronica persica; 0.060 kg/ha): 100 | VERPE weed control rating (Veronica persica; 0.120 kg/ha): 100 | VERPE weed control rating (Veronica persica; 0.240 kg/ha): 100 | HORVW rating (Selectivity) (HORVW; 0.015 kg/ha): 15 | HORVW rating (Selectivity) (HORVW; 0.030 kg/ha): 45 | HORVW rating (Selectivity) (HORVW; 0.060 kg/ha): 45 | HORVW rating (Selectivity) (HORVW; 0.120 kg/ha): 60 | HORVW rating (Selectivity) (HORVW; 0.240 kg/ha): 60 | HORVWM rating (Selectivity) ([5]; 0.015 kg/ha): 20 | HORVWM rating (Selectivity) ([5]; 0.030 kg/ha): 30 | HORVWM rating (Selectivity) ([5]; 0.060 kg/ha): 40 | HORVWM rating (Selectivity) ([5]; 0.120 kg/ha): 55 | HORVWM rating (Selectivity) ([5]; 0.240 kg/ha): 55 | TRZAWK rating (Selectivity) ([6]; 0.015 kg/ha): 5 | TRZAWK rating (Selectivity) ([6]; 0.030 kg/ha): 8 | TRZAWK rating (Selectivity) ([6]; 0.060 kg/ha): 8 | TRZAWK rating (Selectivity) ([6]; 0.120 kg/ha): 25 | TRZAWK rating (Selectivity) ([6]; 0.240 kg/ha): 40 | TRZAWM rating (Selectivity) ([7]; 0.015 kg/ha): 3 | TRZAWM rating (Selectivity) ([7]; 0.030 kg/ha): 8 | TRZAWM rating (Selectivity) ([7]; 0.060 kg/ha): 10 | TRZAWM rating (Selectivity) ([7]; 0.120 kg/ha): 35 | TRZAWM rating (Selectivity) ([7]; 0.240 kg/ha): 45 | GALAP weed control rating (Galium aparine [8]; 0.030 kg/ha): 90 | GALAP weed control rating (Galium aparine [8]; 0.060 kg/ha): 90 | GALAP weed control rating (Galium aparine [8]; 0.120 kg/ha): 93 | GALAP weed control rating (Galium aparine [8]; 0.240 kg/ha): 93 | LAMPU weed control rating (Lamium purpureum [9]; 0.030 kg/ha): 93 | LAMPU weed control rating (Lamium purpureum [9]; 0.060 kg/ha): 93 | LAMPU weed control rating (Lamium purpureum [9]; 0.120 kg/ha): 93 | LAMPU weed control rating (Lamium purpureum [9]; 0.240 kg/ha): 93 | MATIN weed control rating (Matricaria inodora [10]; 0.030 kg/ha): 65 | MATIN weed control rating (Matricaria inodora [10]; 0.060 kg/ha): 80 | MATIN weed control rating (Matricaria inodora [10]; 0.120 kg/ha): 85 | MATIN weed control rating (Matricaria inodora [10]; 0.240 kg/ha): 85 | STEME weed control rating (Stellaria media [11]; 0.030 kg/ha): 65 | STEME weed control rating (Stellaria media [11]; 0.060 kg/ha): 85 | STEME weed control rating (Stellaria media [11]; 0.120 kg/ha): 85 | STEME weed control rating (Stellaria media [11]; 0.240 kg/ha): 92 | maximum tolerated dose in wheat / dose at which sufficiently selective in wheat (wheat): clearly less selective in wheat than TTP
